Measurements from ChEMBL document CHEMBL1201862, “PubChem BioAssay data set” (2004).
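Cells were grown in 96-well plates and exposed to each compound for 48 hours at five concentrations; endpoints were interpolated linearly between bracketing concentrations, or set to the highest concentration if not reached. GI50 is the concentration that inhibits growth by half.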 Activity calls are given as the source filed them. Cut-off read from the data, not from the text of the source: active = GI50 up to about 1.1 µM and inactive = higher.

Tests used:
Assay in all cases: DTP human tumour cell line panel, 48 h
Malme-3M = system: Malme-3M
SK-MEL-28 = system: SK-MEL-28
MOLT-4 = system: MOLT-4
IGROV-1 = system: IGROV-1
HT-29 = system: HT-29
NCI-H522 = system: NCI-H522
SF-268 = system: SF-268
OVCAR-5 = system: OVCAR-5
SW-620 = system: SW-620
OVCAR-4 = system: OVCAR-4
A549 = system: A549
OVCAR-8 = system: OVCAR-8
XF498 = system: XF498
NCI-H460 = system: NCI-H460
KM-20L2 = system: KM-20L2
SK-MEL-5 = system: SK-MEL-5
SF-295 = system: SF-295
SK-MEL-2 = system: SK-MEL-2
HCC 2998 = system: HCC 2998
RXF 393 = system: RXF 393

Measured: GI50

CC1SC(c2ccccc2)N(Nc2c3ccccc3nc3ccccc23)C1=O (stereo not given)
inactive: Malme-3M > 100 µM | SK-MEL-28 > 100 µM | MOLT-4 28.9 µM | IGROV-1 27 µM | HT-29 > 100 µM | NCI-H522 40 µM | SF-268 > 100 µM | OVCAR-5 78.7 µM | SW-620 > 100 µM | OVCAR-4 > 100 µM | A549 58.5 µM | OVCAR-8 74.1 µM | XF498 > 100 µM | NCI-H460 > 100 µM | KM-20L2 > 100 µM | SK-MEL-5 38.4 µM | SF-295 69 µM | SK-MEL-2 > 100 µM | HCC 2998 > 100 µM

O=C1C=CC[C@H]2O[C@@H](COC(=O)Cc3ccccc3)C[C@H]2O1
inactive: SK-MEL-28 21.9 µM | MOLT-4 25.4 µM | IGROV-1 20 µM | HT-29 25.5 µM | SF-268 25 µM | OVCAR-5 42.6 µM | SW-620 24 µM | OVCAR-4 24 µM | A549 27.1 µM | OVCAR-8 28.7 µM | NCI-H460 31.9 µM | SK-MEL-5 49.7 µM | SF-295 30.4 µM | SK-MEL-2 51.5 µM

CCCCCCCCCCCCCCCCCC(=O)OCC1OC(OC)C(NC(=O)N(CCCl)N=O)C(O)C1O (stereo not given)
inactive: Malme-3M 26.1 µM | RXF 393 17 µM | SK-MEL-28 21.6 µM | MOLT-4 4.41 µM | IGROV-1 32.5 µM | HT-29 20.9 µM | NCI-H522 17.1 µM | SF-268 8.3 µM | OVCAR-5 44.2 µM | SW-620 14.1 µM | OVCAR-4 24 µM | A549 18.1 µM | OVCAR-8 33.5 µM | XF498 20.7 µM | NCI-H460 5.96 µM | KM-20L2 > 10 µM | SK-MEL-5 26.3 µM | SF-295 14.9 µM | SK-MEL-2 45.9 µM | HCC 2998 29 µM

O=C1c2cccc3c2C(=O)c2c(cccc21)OCCOCCOCCOCCO3
inactive: Malme-3M > 100 µM | RXF 393 78.2 µM | MOLT-4 31.5 µM | IGROV-1 > 100 µM | HT-29 > 100 µM | NCI-H522 > 100 µM | SF-268 > 100 µM | OVCAR-5 > 100 µM | SW-620 > 100 µM | OVCAR-4 74.6 µM | A549 > 100 µM | OVCAR-8 > 100 µM | NCI-H460 78.3 µM | KM-20L2 > 100 µM | SK-MEL-5 75.7 µM | SF-295 > 100 µM | SK-MEL-2 > 100 µM | HCC 2998 > 100 µM

COc1cc(/C=C(\C#N)C(N)=O)cc(Br)c1O
inactive: Malme-3M > 100 µM | RXF 393 > 100 µM | SK-MEL-28 > 100 µM | MOLT-4 > 100 µM | IGROV-1 > 100 µM | HT-29 > 100 µM | SF-268 > 100 µM | OVCAR-5 > 100 µM | SW-620 > 100 µM | OVCAR-4 > 100 µM | A549 > 100 µM | OVCAR-8 > 100 µM | XF498 23.2 µM | NCI-H460 > 100 µM | KM-20L2 > 100 µM | SK-MEL-5 > 100 µM | SF-295 > 100 µM | SK-MEL-2 > 100 µM | HCC 2998 > 100 µM
